Source: US12319708B2, “Agonists of peroxisome proliferator-activated receptor alpha (PPARα) and methods of use” (The Board of Regents of the University of Oklahoma, priority 2018, dated 2025)
Like-named read-outs stand apart in the source and are kept apart here.

Biological target: T1, hPPARα (Homo sapiens, UniProt Q07869)
T1 sequence (Q07869 1-468): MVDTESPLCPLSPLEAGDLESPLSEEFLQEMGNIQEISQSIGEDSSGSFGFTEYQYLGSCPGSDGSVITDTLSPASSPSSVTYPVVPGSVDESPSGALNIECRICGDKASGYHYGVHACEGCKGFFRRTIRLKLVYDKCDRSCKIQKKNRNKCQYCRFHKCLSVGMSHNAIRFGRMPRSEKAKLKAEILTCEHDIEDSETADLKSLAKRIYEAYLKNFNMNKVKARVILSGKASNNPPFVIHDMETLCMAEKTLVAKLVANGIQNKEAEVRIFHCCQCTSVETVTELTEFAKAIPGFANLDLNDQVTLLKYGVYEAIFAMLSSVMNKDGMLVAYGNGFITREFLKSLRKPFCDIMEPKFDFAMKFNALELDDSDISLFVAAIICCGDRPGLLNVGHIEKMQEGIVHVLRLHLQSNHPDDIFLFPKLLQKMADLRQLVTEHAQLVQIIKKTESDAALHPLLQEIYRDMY
Assay: PPARα luciferase cell reporter assay (Indigo Biosciences)
Format: cell-based
Details: for ratio (5/50): ratio of relative light unit (RLU) signal at 5 and 50 μM: 5 and 50 μM compound concentrations; for fold-signal: ratio of maximal signal strength to that obtained with GW590735: relative to GW590735
From the text: With the focused subset of analogs in-hand, our efforts shifted to the evaluation of these derivatives for PPARα agonism. Preliminary evaluation utilized a commercially available PPARα luciferase cell reporter assay (Indigo Biosciences). The cell-line employed is engineered to constitutively express high-levels of hPPARα. Upon interaction with an agonist, hPPARα translocates to the nucleus, binds to the PPRE, and upregulates gene transcription, including the inserted luciferase gene. Luciferase activity is detected indirectly through quantification of oxyluciferin production.

[1] = mean ± SEM of at least two separate experiments in triplicate (Table 9), read-out: EC50 hPPARα
[2] = structure IIa compounds (Table 6)
[3] = Table 6, cellular luciferase activity, read-out: α EC50
[4] = structure IIb compounds (Table 8)

Fold (5 μM): fold increase in luciferase compared to DMSO negative control [2] | Fold (50 μM): fold increase in luciferase compared to DMSO negative control [2] | Structure (SMILES) | also measured
– | – | Cc1cc(CNc2cccc(C(=O)O)c2)ccc1OCc1cc(F)cc(F)c1 [25′] | ratio (5/50): ratio of relative light unit (RLU) signal at 5 and 50 μM: 1.1; fold-signal: ratio of maximal signal strength to that obtained with GW590735: 1.6
– | – | O=C(O)c1cccc(NCc2ccc(OCc3ccc(F)cc3)c(F)c2)c1 [26′] | ratio (5/50): ratio of relative light unit (RLU) signal at 5 and 50 μM: 0.7; fold-signal: ratio of maximal signal strength to that obtained with GW590735: 1.7
– | – | O=C(O)c1cccc(NCc2ccc(OCc3ccc(F)cc3)c(Cl)c2)c1 [27′] | ratio (5/50): ratio of relative light unit (RLU) signal at 5 and 50 μM: 1.1; fold-signal: ratio of maximal signal strength to that obtained with GW590735: 1.5
– | – | Cc1cc(CN(C)c2cccc(C(=O)O)c2)ccc1OCc1ccc(F)cc1 [30′] | ratio (5/50): ratio of relative light unit (RLU) signal at 5 and 50 μM: 0.8; EC50 [1]: 67 ± 10 nM; fold-signal: ratio of maximal signal strength to that obtained with GW590735: 2.1
– | – | O=C(O)c1cc(F)cc(NCc2ccc(OCc3ccc(F)cc3)c(Cl)c2)c1 [32′] | ratio (5/50): ratio of relative light unit (RLU) signal at 5 and 50 μM: 1.1; EC50 [1]: 52 ± 11 nM; fold-signal: ratio of maximal signal strength to that obtained with GW590735: 1.8
1 fold | 1 fold | COc1ccc(COc2ccc(CNc3cccc(B(O)O)c3)cc2)cc1 [Compound 110] | –
1 fold | 46 fold | CC(C)(Oc1cccc(NCc2ccc(OCc3ccccc3)cc2)c1)C(=O)O [Compound 116] | –
18 fold | 35 fold | O=C(O)c1cccc(NCc2ccc(OCc3ccccc3)cc2)c1 [Compound 117] | –
1 fold | 37 fold | O=C(O)c1cccc(NCc2ccc(OCc3ccc(Cl)cc3Cl)cc2)c1 [Compound 118] | –
9 fold | 35 fold | O=C(O)c1cccc(NCc2ccc(OCc3cc(F)cc(F)c3)cc2)c1 [Compound 119] | –
16 fold | 35 fold | O=C(O)c1cccc(NCc2ccc(OCc3ccc([N+](=O)[O-])cc3)cc2)c1 [Compound 120] | –
16 fold | 42 fold | CC(C)(Oc1cccc(NCc2ccc(OCc3cc(F)cc(F)c3)cc2)c1)C(=O)O [Compound 121] | –
17 fold | 36 fold | O=C(O)c1cccc(NCc2ccc(OCc3ccc(Cl)cc3)cc2)c1 [Compound 122] | –
2 fold | 55 fold | CC(C)(Oc1cccc(NCc2ccc(OCc3ccc(Cl)cc3)cc2)c1)C(=O)O [Compound 123] | –
81 fold | 100 fold | O=C(O)c1cccc(NCc2ccc(OCc3ccc(C(F)(F)F)cc3)cc2)c1 [Compound 126] | EC50 [3]: 800 nM
11 fold | 150 fold | CC(C)(Oc1cccc(NCc2ccc(OCc3ccc(F)cc3)cc2)c1)C(=O)O [Compound 127] | –
19 fold | 106 fold | CC(C)(Oc1cccc(NCc2ccc(OCc3ccc(C(F)(F)F)cc3)cc2)c1)C(=O)O [Compound 128] | –
2 fold | 112 fold | O=C(O)COc1cccc(NCc2ccc(OCc3ccc(C(F)(F)F)cc3)cc2)c1 [Compound 129] | –
2 fold | 43 fold | COc1ccc(COc2ccc(CNc3cccc(OCC(=O)O)c3)cc2)cc1 [Compound 130] | EC50 [3]: 29200 nM
1 fold | 0 fold | O=C(O)c1cccc(NCCc2ccc(OCCc3ccccc3)cc2)c1 [Compound 133] | –
3 fold | 9 fold | COc1ccc(COc2ccc(CNc3cccc(C(=O)NO)c3)cc2)cc1 [Compound 134] | –

Fold (5 μM): fold increase in luciferase compared to DMSO negative control [2] | Fold (50 μM): fold increase in luciferase compared to DMSO negative control [2] | Structure (SMILES) | also measured
3 fold | 5 fold | CS(=O)(=O)Nc1cccc(NCc2ccc(OCc3ccc(F)cc3)cc2)c1 [Compound 145] | –
34 fold | 53 fold | O=C(NO)c1cccc(NCc2ccc(OCc3ccc(F)cc3)cc2)c1 [Compound 146] | –
3 fold | 3 fold | NS(=O)(=O)c1cccc(NCc2ccc(OCc3ccc(F)cc3)cc2)c1 [Compound 147] | –
73 fold | 85 fold | Fc1ccc(COc2ccc(CNc3cccc(-c4nnn[nH]4)c3)cc2)cc1 [Compound 148] | EC50 [3]: 5700 nM
102 fold | 109 fold | CN(Cc1ccc(OCc2ccc(F)cc2)cc1)c1cccc(C(=O)O)c1 [Compound 151] | EC50 [3]: 1000 nM
94 fold | 120 fold | CN(Cc1ccc(OCc2ccc(F)cc2)cc1)c1cccc(OC(C)(C)C(=O)O)c1 [Compound 153] | EC50 [3]: 1700 nM
3 fold | 2 fold | OB(O)c1cccc(NCc2ccc(OCc3ccc(F)cc3)cc2)c1 [Compound 154] | –
– | – | O=C(O)c1ccc(NCc2ccc(OCc3ccc(C(F)(F)F)cc3)cc2)cc1 [Compound 155] | Fold (5 μM): fold increase in luciferase compared to DMSO negative control [4]: 4 fold; Fold (50 μM): fold increase in luciferase compared to DMSO negative control [4]: 8 fold
– | – | COc1ccc(COc2ccc(CNc3ccc(C(=O)O)cc3)cc2)cc1 [Compound 162] | Fold (5 μM): fold increase in luciferase compared to DMSO negative control [4]: 4 fold; Fold (50 μM): fold increase in luciferase compared to DMSO negative control [4]: 29 fold
18 fold | 93 fold | O=C(O)c1cc(Cl)cc(NCc2ccc(OCc3ccc(F)cc3)cc2)c1 [Compound 168] | –
– | – | CC(C)(Oc1ccc(NCc2ccc(OCc3ccc(F)cc3)cc2)cc1)C(=O)O [Compound 182] | Fold (5 μM): fold increase in luciferase compared to DMSO negative control [4]: 40 fold; Fold (50 μM): fold increase in luciferase compared to DMSO negative control [4]: 74 fold
– | – | O=C(O)c1ccc(NCc2ccc(OCc3ccc(F)cc3)cc2)cc1 [Compound 183] | Fold (5 μM): fold increase in luciferase compared to DMSO negative control [4]: 4 fold; Fold (50 μM): fold increase in luciferase compared to DMSO negative control [4]: 14 fold
59 fold | 69 fold | O=C(O)c1cc(Br)cc(NCc2ccc(OCc3ccc(F)cc3)cc2)c1 [Compound 184] | EC50 [3]: 900 nM
61 fold | 66 fold | O=C(O)c1cc(F)cc(NCc2ccc(OCc3ccc(F)cc3)cc2)c1 [Compound 185] | EC50 [3]: 700 nM
1 fold | 0 fold | COc1ccc(CCOc2ccc(CCNc3cccc(C(=O)O)c3)cc2)cc1 [Compound 187] | –
10 fold | 45 fold | CC(C)(Sc1cccc(NCc2ccc(OCc3ccc(F)cc3)cc2)c1)C(=O)O [Compound 188] | –
39 fold | 37 fold | O=C(O)c1cccc(NCc2ccc(OCc3ccc(I)cc3)cc2)c1 [Compound 189] | EC50 [3]: 1200 nM
42 fold | 61 fold | N#Cc1ccc(COc2ccc(CNc3cccc(C(=O)O)c3)cc2)cc1 [Compound 191] | –
53 fold | 58 fold | O=C(O)c1cccc(NCc2ccc(OCc3ccc(Br)cc3)cc2)c1 [Compound 192] | EC50 [3]: 800 nM
73 fold | 56 fold | O=C(O)c1cccc(NCc2ccc(OCc3cccc(F)c3)cc2)c1 [Compound 193] | EC50 [3]: 1100 nM

Structure (SMILES) | Fold (5 μM): fold increase in luciferase compared to DMSO negative control [2] | Fold (50 μM): fold increase in luciferase compared to DMSO negative control [2] | also measured
O=C(O)c1cccc(NCc2ccc(OCc3ccc(F)cc3F)cc2)c1 [Compound 194] | 51 fold | 49 fold | EC50: 400 nM
